# Assay results from patent publication US5498601A, “Platelet aggregation-inhibiting peptides” (Nippon Steel Corporation, priority 1992, dated 1996).
# Residues, ends and D or L forms follow the SMILES beside them. *: point of attachment. X1 = O=C(c1cc(=O)[nH]c(=O)[nH]1)*
# Assays:
# [1] = system: platelet aggregation; experiment: intravenous injection in beagle, platelet aggregation of PRP measured over time; type: in vivo; conditions: 5 mg/Kg i.v.
# Method: (1) In order to examine how long the peptides of the present invention and heparin, which is used as an anticoagulant at present, can remain without being broken down or eliminated and how long the activity of them persists, intravenous injection experiments were carried out using beagles.
# Since the peptides of the present invention have the platelet aggregation-inhibiting activity, the amount of the peptides which remain in the body of an organism without being broken down can be determined by collecting blood and measuring the platelet aggregation-inhibiting activity of the blood at given intervals of time. Thus, the in vivo stability of the peptides can be estimated.
# In the experiments, a male beagle having a body weight of 10 Kg was used. […] The collected blood was centrifuged at 1000 rpm for 10 minutes to prepare platelet-rich plasma (PRP). The reminder was further centrifuged at 3000 rpm for 15 minutes to prepare platelet-poor plasma (PPP).
# The platelet aggregation ability was determined by measuring the platelet aggregation of the PRP with collagen and ADP using an aggregometer. In the measurement, ADP was added at a final concentration of 7.5 and 10.0 μM and collagen was added at a final concentration of 7.5 and 10.0 μg/ml.
# [2] = system: blood coagulation in the dialysis circuit; experiment: extracorporeal circulation (artificial dialysis) model using a beagle; type: in vivo
# Method: In order to confirm that the peptides of the present invention have the action of inhibiting blood coagulation in an extracorporeal circulation system, experiments were carried out on an artificial dialysis model using a beagle which is one of extracorporeal circulation models (see Hamano et al., Thromb. Res. 55 (1989) 438-449).
# In the experiments, beagles weighing about 10-12 Kg were used. The beagles were anesthetized with pentobarbital (about 30 mg/Kg) and the right hind leg was incised to expose the femoral artery and femoral vein. Cannulas were inserted into the exposed femoral artery and femoral vein and connected to the artificial dialyzator for experiments (Kuraray, Osaka, Japan) having a circuit configuration as shown in FIG. 5. A hollow-fiber dialyzer (RENAK-A, RA-04, 0.4 m^2, Kawasumi Laboratories, Tokyo) was used. A pump for blood was placed between the femoral artery and the dialyzator and operated to keep the blood flow rate at 25 ml/min in the extracorporeal circulation system during the experiments.
# The following three parameters were measured in the experiments: 1 the pressure in the up-stream portion of the dialyzer (perfusion pressure), 2 the percent platelet adhesion and 3 the whole blood coagulation time. The pressure under 1 was measured by a pressure gauge incorporated in the upper stream portion of the dialyzator in the dialysis circuit as shown in FIG. 5. Since at the site of dialyzer blood often experiences contacts with foreign materials and blood flows in a narrow space, blood coagulation is most likely to occur at this site in the dialysis circuit. If blood coagulation occurs there, the dialyzer is clogged and the blood pressure in the up-stream portion will increase. The change in the perfusion pressure at this site indicates the degree of blood coagulation in the dialysis circuit. In connection with parameters2 and 3, an aliquot of blood was sampled at the inlet and outlet of the dialysis part at given intervals of time to measure 2 and 3 by conventional methods. Parameters 2 and 3 indicate how the function of platelets and that of blood coagulation (the degree of activation), respectively, change with the progress of the experiments.
# The experiments began with a continuous injection of a solution of the peptide of the present invention in saline from the arterial side (or the inlet side of the dialysis circuit) immediately after the circuit set-up. The amount of injection was 10 mg/dog or 30 mg/dog and the total amount was gradually injected over 1 hour (injection rate: 1 ml/min). In a control, only saline was continuously injected in the same manner. The injection of the drug was stopped after 60 minutes and blood was thereafter circulated up to 180 minutes to continue the measurement of the above parameters. […]
# [3] = system: Hela cells; experiment: adhesion of HeLa cells to extracellular matrix protein adsorbed plates; type: cell-based
# Method: (§1) (1) Using type 1 collagen (Iwaki Glass, type I-c), type 4 collagen (Iwaki Glass, type IV), fibronectin (human-origin, Iwaki Glass), vitronectin (human-origin, Iwaki Glass) and laminin (mouse […] sarcoma-origin, Iwaki Glass) as extracellular matrix proteins, experiments were performed to examine cell adhesion to a plastic plate on which those ectracellular matrix proteins had been adsorbed.
# (§2) Each of the collagens was diluted with saline (adjusted to pH 3.0 with hydrochloric acid) to prepare a dilution at a concentration of 100 μg/ml for use in adsorption. The remaining three proteins were diluted with PBS of pH 7.4 to prepare dilutions at a concentration of 20 μg/ml for further use. […]
# (§3) After the incubation for one hour according to the method described above, all the liquid present in each well was removed and the wells were washed three times with PBS to remove non-adherent cells. […] The concentration of methylene blue releasing from the cells was determined by a spectrophotometer on the basis of absorbance at 600 nm measured. In this measurement system, the number of cells adhering to the extracellular matrix proteins is proportional to the absorbance at 600 nm and therefore can be measured with precision.
# [4] = system: B16F10 melanoma cells; experiment: adhesion of B16F10 melanoma cells to extracellular matrix protein adsorbed plates; type: cell-based
# Method: as §1, §2, §3
# [5] = system: human platelets; experiment: protection of human platelet fraction during storage
# Method: (§4) Immediately after the blood collection, the syringe was stirred gently to mix the blood with the sodium citrate solution. The mixed blood was centrifuged (1100 rpm, 250 g) at room temperature for 15 minutes and the rotation was stopped without applying the brake. Then, the supernatant was collected with a pipette to obtain a platelet fraction. The remaining blood was further centrifuged (3000 rpm, 1000 g). The supernatant was collected to obtain platelet-poor plasma and stored.
# (§5) The platelet fraction was placed in a polypropylene test tube, which was capped with a membrane filter to ensure breathability. Then, the test tube was placed on a shaker and stored at room temperature while shaking through vibrational amplitude of 20 cm at a frequency of 2 Hz. All the operations were performed under aseptic conditions to prevent the proliferation of bacteria during the storage.
# (§6) After the storage for a given period of time, an aliquot of the platelet fraction was sampled and the number of platelets was measured. Prostaglandin E1 (Sigma Co.) was added to give a final concentration of 20 μg/ml and centrifuged at 750 g for 10 minutes. The supernatant was removed and the remainder was washed twice with HEPES-Tyrode's buffer containing prostaglandin E1 to remove the protected peptide. Finally, the platelets were suspended in preliminarily stored platelet-poor plasma. After the incubation for a given period of time, the aggregation ability of the platelets was determined by the method described above.
# [6] = system: platelet aggregation; conditions: 400 μM; cited from earlier work
# [7] = system: human platelets
# Method: as §4, §5, §6
# [8] = during the continuous injection of the drug
# [9] = type 1 collagen, type 4 collagen, fibronectin, vitronectin
compound,measurement,setting,value
"N=C(N)NCCC[C@H](NC(=O)[C@H](CO)NC(=O)c1cc(=O)[nH]c(=O)[nH]1)C(=O)NCC(=O)N[C@@H](CC(=O)O)C(=O)N[C@@H](Cc1c[nH]c2ccccc12)C(=O)O [Example 9, Orotyl--Ser--Arg--Gly--Asp--Trp--OH] (X1-SRGDW-OH)",platelet aggregation time course with changed collagen concentration or ADP as inducer,[1],the same results were obtained
same,platelet aggregation 5 minutes after the injection,[1]; collagen 10 μg/ml as inducer,completely inhibited
same,time to complete recovery of platelet aggregation activity to the level before the injection,[1]; collagen 10 μg/ml as inducer,45 to 60 min
same,increase in the perfusion pressure,[2]; 10 mg/dog continuously injected over 1 hour,the increase rate of the perfusion pressure was evidently slow
same,increase in the perfusion pressure,"[2]; 30 mg/dog continuously injected over 1 hour, during the injection",little or no increase in the perfusion pressure
same,blood coagulation ability during the continuous injection,[2]; [8],approximately 0%
same,whole blood coagulation time,[2]; [8],significantly prolonged
same,effect on cell adhesion to laminin,[3]; laminin,scarcely any effect
same,cell adhesion to the other extracellular matrix proteins,[3]; [9],inhibited depending on the concentration
same,effect on cell adhesion to laminin,[4]; laminin,scarcely any effect
same,cell adhesion to the other extracellular matrix proteins,[4]; [9],inhibited depending on the concentration
same,aggregation activity of platelets remaining,"[5]; 400 μM, after the 72 hour storage",60-70%
same,decrease in the number of platelets,"[5]; 400 μM, storage period of 72 hours",little decrease in the number of platelets
same,decrease in the aggregation activity of platelets during storage,"[5]; dependent on peptide concentration, control decreased to 25% in 72 hours",the decrease in the aggregation activity was significantly inhibited
same,decrease in the number of platelets during storage compared to the control group,"[5]; room temperature, shaking, dependent on peptide concentration",significant inhibitory effect on the decrease in the number of platelets
GRGDSP,aggregation of platelets activated by ADP,[6],completely inhibited
"NC(N)=NCCC[C@H](N)C(=O)NCC(=O)N[C@@H](CC(=O)O)C(=O)N[C@@H](CO)C(=O)O [Comparative Example 1, Arg--Gly--Asp--Ser--OH]",stability when added to a platelet fraction,[7],broken down in several hours
